This note sets out measurements from ChEMBL document CHEMBL1121858, “Synthesis and antimalarial activity of 8-[(1-alkyl-4-aminobutyl)amino]-6-methoxy-4-methylquinolines” (1981).

Holding throughout (format): functional
Experiment [1] relates to Mus musculus. In words: Mean survival time of Plasmodium berghei infected mice (Mus musculus) after administration of single dose of 80 mg/kg intravenously. The note with it: route intravenous.
The subject of experiment [2] is Mus musculus. The experiment in a line: Mean survival time of Plasmodium berghei infected mice (Mus musculus) after administration of single dose of 160 mg/kg intravenously. Particulars: route intravenous.
Experiment [3] has as its system Mus musculus. In words: Mean survival time of Plasmodium berghei infected mice (Mus musculus) after administration of single dose of 640 mg/kg intravenously. The note with it: route intravenous.
Experiment [4] relates to Mus musculus. The experiment in a line: Mean survival time of Plasmodium berghei infected mice (Mus musculus) after administration of single dose of 20 mg/kg intravenously. The note with it: route intravenous.
Experiment [5] relates to Mus musculus. The experiment in a line: Mean survival time of Plasmodium berghei infected mice (Mus musculus) after administration of single dose of 40 mg/kg intravenously. Particulars: route intravenous.
In experiment [6] the test system is Mus musculus. In words: Mean survival time of Plasmodium berghei infected mice (Mus musculus) after administration of single dose of […] intravenously.

Values joined by “and” are separate entries in the source; they are usually repeats but may differ in a detail not shown here. Equal values may be shown once.

Take `COc1cc(NC(CCCN)C(C)C)c2nccc(C)c2c1.O=P(O)(O)O` (centres undefined): the MST in the experiment with Mus musculus [1] amounted to 6.8 days; in the experiment with Mus musculus [2], 7.8 days; in the experiment with Mus musculus [3], 1 days; in the experiment with Mus musculus [4], 3.4 days; with Mus musculus [5], 5.2 days; in the experiment on Mus musculus [6], 7.2 days.
Consider `CCCC(CCCN)Nc1cc(OC)cc2c(C)ccnc12.O=P(O)(O)O` (centres undefined), for which the MST was determined as 5.7 days in the experiment with Mus musculus [1]; 6.3 days in the experiment on Mus musculus [2]; 12.3 days in the experiment on Mus musculus [3]; 3.1 days in the experiment on Mus musculus [4]; 4.1 days in the experiment with Mus musculus [5]; 9.1 days in the experiment on Mus musculus [6].
For `CCC(CCCN)Nc1cc(OC)cc2c(C)ccnc12.O=P(O)(O)O` (centres undefined), the MST is 9.7 days with Mus musculus [1]; 11.5 days with Mus musculus [2]; 5 days in the experiment on Mus musculus [3]; 7.3 days in the experiment on Mus musculus [4]; 7.9 days in the experiment with Mus musculus [5]; 5 days in the experiment on Mus musculus [6].
Take `COc1cc(NC(C)CCCN)c2ncccc2c1.O=P(O)(O)O.O=P(O)(O)O` (centres undefined) [PRIMAQUINE PHOSPHATE]: the MST is 6.4 days and 9.4 days in the experiment with Mus musculus [1] (80 mg/kg); 7 days and 10.8 days in the experiment on Mus musculus [2] (160 mg/kg); 5 days in the experiment on Mus musculus [3]; 2.2 days and 4 days in the experiment with Mus musculus [4] (20 mg/kg); 4.2 days and 5 days in the experiment on Mus musculus [5] (40 mg/kg); 5 days in the experiment with Mus musculus [6].
